Reference: ChEMBL document CHEMBL2074164, “Characterization of the transport of the bicyclic peptide phalloidin by human hepatic transport proteins” (Naunyn Schmiedebergs Arch Pharmacol, 2003)
*1 amine or outer side, *2 acyl side, *3 side chain or, on linkers, in order; H or OH if unused. Where a SMILES comes first, the peptide text is derived from it. Bridges are numbered along the chain shown (N, C = ends). [ ]: non-standard residue; d: D form. Trp(2-yl) = O=C([C@H](Cc1c([*:3])[nH]c2ccccc12)N[*:1])[*:2]; Leu(4R-OH,5-OH) = C[C@](O)(CO)C[C@H](N)C(=O)O; cisHyp = O=C(O)[C@@H]1C[C@H](O)CN1

T1: Solute carrier organic anion transporter family member 1B1 (Homo sapiens, UniProt Q9Y6L6)
T1 sequence (Q9Y6L6 whole entry): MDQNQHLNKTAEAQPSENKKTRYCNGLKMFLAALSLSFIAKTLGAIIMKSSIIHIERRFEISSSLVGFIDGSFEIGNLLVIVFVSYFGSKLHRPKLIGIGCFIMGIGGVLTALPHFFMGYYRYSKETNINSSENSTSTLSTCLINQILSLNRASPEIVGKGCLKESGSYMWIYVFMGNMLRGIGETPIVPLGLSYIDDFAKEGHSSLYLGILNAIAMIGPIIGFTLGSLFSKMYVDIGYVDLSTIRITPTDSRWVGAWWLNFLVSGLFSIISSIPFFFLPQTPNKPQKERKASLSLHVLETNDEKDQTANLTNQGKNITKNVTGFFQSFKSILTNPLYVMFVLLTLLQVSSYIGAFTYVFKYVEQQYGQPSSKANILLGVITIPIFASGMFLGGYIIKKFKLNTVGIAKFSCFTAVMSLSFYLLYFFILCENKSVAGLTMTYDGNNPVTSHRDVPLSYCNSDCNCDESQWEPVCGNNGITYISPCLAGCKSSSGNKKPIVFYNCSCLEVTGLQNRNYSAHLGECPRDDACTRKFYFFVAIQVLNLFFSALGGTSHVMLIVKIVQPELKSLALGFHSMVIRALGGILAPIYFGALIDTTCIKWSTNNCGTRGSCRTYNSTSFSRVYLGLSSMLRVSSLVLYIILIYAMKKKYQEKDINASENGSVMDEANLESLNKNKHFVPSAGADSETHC

B1: Solute carrier organic anion transporter family member 1B1 (Homo sapiens) (protein)
chain: T1 sequence (Q9Y6L6 whole entry)

How the values were obtained:
Format in all cases: functional, cell-based
[1] = target: T1, Solute carrier organic anion transporter family member 1B1; assay: TP_TRANSPORTER: inhibition of Phalloidin uptake (Phalloidin: 1 uM) in OATP-C-expressing HEK293 cells
[2] = target: Canalicular multispecific organic anion transporter 1/Solute carrier organic anion transporter family member 1B1 (Homo sapiens, UniProt Q92887+Q9Y6L6); assay: TP_TRANSPORTER: transepithelial transport (basal to apical) of Phalloidin at a concentration of 1 uM in MRP2- and OATP-C-expressing MDCKII cells; conditions: dog, mdck-ii
[3] = target: T1, Solute carrier organic anion transporter family member 1B1; assay: TP_TRANSPORTER: inhibition of Phalloidin uptake (Phalloidin: 1 uM) by alpha-Amanitin at a concentration of 20 u M in OATP-C-expressing HEK293 cells; conditions: hek293, 20 µM
[4] = substrate: C[C@@H]1NC(=O)[C@H](C[C@@](C)(O)CO)NC(=O)[C@@H]2Cc3c([nH]c4ccccc34)SC[C@H](NC(=O)[C@@H]([C@H](C)O)NC1=O)C(=O)N1C[C@@H](O)C[C@H]1C(=O)N[C@@H](C)C(=O)N2; assay: TP_TRANSPORTER: uptake in OATP-C-expressing HEK293 cells

Row | Molecule | IC50 [1] | also measured
1 | CC(C)[C@@H]1NC(=O)[C@@H](Cc2ccccc2)NC(=O)[C@H](Cc2ccccc2)NC(=O)[C@@H]2CCCN2C(=O)[C@@H]2CCCN2C(=O)[C@H](Cc2ccccc2)NC(=O)[C@@H](Cc2ccccc2)NC(=O)[C@H](C)NC(=O)[C@@H]2CCCN2C(=O)[C@@H]2CCCN2C1=O [ANTAMANIDE] | 1000 nM | –
2 | C[C@@H]1NC(=O)[C@H](C[C@@](C)(O)CO)NC(=O)[C@@H]2Cc3c([nH]c4ccccc34)SC[C@H](NC(=O)[C@@H]([C@H](C)O)NC1=O)C(=O)N1C[C@@H](O)C[C@H]1C(=O)N[C@@H](C)C(=O)N2 [PHALLOIDIN] (cyclo(A[dT]C[cisHyp]A[Trp(2-yl)][Leu(4R-OH,5-OH)]); thioether 3-6) | – | Activity [2]: substrate [+]
3 | CO[C@H]1C[C@@H]2CC[C@@H](C)[C@@](O)(O2)C(=O)C(=O)N2CCCC[C@H]2C(=O)O[C@H]([C@H](C)C[C@@H]2CC[C@@H](O)[C@H](OC)C2)CC(=O)[C@H](C)/C=C(\C)[C@@H](O)[C@@H](OC)C(=O)[C@H](C)C[C@H](C)/C=C/C=C/C=C/1C [SIROLIMUS] | 1100 nM | –
4 | O=C1OC(c2ccc(O)c(S(=O)(=O)O)c2)(c2ccc(O)c(S(=O)(=O)O)c2)c2c(Br)c(Br)c(Br)c(Br)c21 [SULFOBROMOPHTHALEIN SODIUM] | 50 nM | –
5 | C=CC[C@@H]1/C=C(\C)C[C@H](C)C[C@H](OC)[C@H]2O[C@@](O)(C(=O)C(=O)N3CCCC[C@H]3C(=O)O[C@H](/C(C)=C/[C@@H]3CC[C@@H](O)[C@H](OC)C3)[C@H](C)[C@@H](O)CC1=O)[C@H](C)C[C@@H]2OC [TACROLIMUS ANHYDROUS] | 3700 nM | –
6 | CC[C@H](C)[C@@H]1NC(=O)CNC(=O)[C@@H]2Cc3c([nH]c4cc(O)ccc34)[S+]([O-])C[C@@H](NC(=O)CNC1=O)C(=O)N[C@@H](CC(N)=O)C(=O)N1C[C@H](O)C[C@H]1C(=O)N[C@@H]([C@@H](C)[C@@H](O)CO)C(=O)N2 (stereo partly drawn) [alpha-Amanitin] | – | Activity [3]: is not an inhibitor [-]
7 | B1 | – | Km [4]: 39 µM
